Among the test systems are ACHN; SR; SF-295; RXF 393; HCT-15; K562; OVCAR-4; NCI-H23; OVCAR-3; SK-OV-3; A549; HCT-116; OVCAR-8; NCI-H460; COLO 205; HOP-62; CAKI-1; UACC-62.
Holding throughout (assay): NCI anticancer screen, dose series, 48 h

Data on five compounds can be found in ChEMBL document CHEMBL1201862, “PubChem BioAssay data set” (2004).

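Protocol summary: plate cells (96-well), add compound at 5 concentrations, incubate 48 h, interpolate endpoints linearly. GI50 is the concentration that inhibits growth by half.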 Activity calls are given as the source filed them. Cut-off read from the data, not from the text of the source: active = GI50 up to about 1.1 µM and inactive = higher.

On to `COc1cc(CC(=O)c2cc3c(cc2-c2ccccc2)OCO3)cc(OC)c1OC`, for which the GI50 was 6.95 µM (inactive) with ACHN; 19.1 µM (inactive) in the assay on SR; 34.5 µM (inactive) in the assay with SF-295; 30.2 µM (inactive) in the assay with RXF 393; 66.5 µM in the assay with HCT-15; 15.8 µM (inactive) in the assay on K562. The GI50 is 27.1 µM (inactive) with OVCAR-4; 22.9 µM (inactive) in the assay on NCI-H23; 31 µM (inactive) with OVCAR-3; 49.3 µM (inactive) in the assay on SK-OV-3; 26.1 µM (inactive) with A549; 43.9 µM (inactive) with HCT-116. Moreover, the GI50 in the assay on OVCAR-8 was 58.7 µM (inactive); in the assay with NCI-H460, 67.9 µM (inactive); with COLO 205 it was 56.4 µM (inactive); with HOP-62 it was 79.6 µM (inactive).
Turning to `N#Cc1nc(-c2cnccn2)oc1N`, the GI50 in the assay on CAKI-1 is > 100 µM (inactive); with ACHN it was > 100 µM (inactive); in the assay on SR it was > 100 µM (inactive); in the assay on RXF 393, > 100 µM (inactive); in the assay on HCT-15, over 100 µM; in the assay on K562, > 100 µM (inactive). Also, the GI50 in the assay with SK-OV-3, with A549, in the assay with HCT-116, with OVCAR-8, in the assay on UACC-62 and with HOP-62 was > 100 µM (inactive) throughout.
In the case of `Cc1cc2c(=O)cc(-c3ccc(O)cc3)oc2c(C(=O)O)c1C`, the GI50 was 22 µM (inactive) in the assay on CAKI-1; > 100 µM (inactive) in the assay on ACHN; > 100 µM (inactive) in the assay with SR; > 100 µM (inactive) with SF-295; over 100 µM in the assay with HCT-15; > 100 µM (inactive) with K562. Also, the GI50 with OVCAR-4, in the assay on NCI-H23, with OVCAR-3, in the assay with SK-OV-3, with A549 and in the assay with HCT-116 was > 100 µM (inactive) throughout. Further, the GI50 with OVCAR-8, in the assay on NCI-H460, with UACC-62, in the assay on COLO 205 and in the assay with HOP-62 was > 100 µM (inactive) throughout.
As for `Nc1nc2c3nc(Nc4ccccc4)sc3nc(=S)n2c2sc(Nc3ccccc3)nc12`, the GI50 is > 100 µM (inactive) in the assay on ACHN; 5.19 µM (inactive) in the assay on SR; > 100 µM (inactive) in the assay with SF-295; > 100 µM (inactive) in the assay on RXF 393; over 100 µM in the assay on HCT-15; > 100 µM (inactive) in the assay with K562. The GI50 is > 100 µM (inactive) in the assay with OVCAR-4; > 100 µM (inactive) in the assay with NCI-H23; > 100 µM (inactive) in the assay on SK-OV-3; > 100 µM (inactive) with A549; > 100 µM (inactive) in the assay with HCT-116; 15.2 µM (inactive) in the assay on OVCAR-8. Further, the GI50 is 46.7 µM (inactive) in the assay with UACC-62, > 100 µM (inactive) in the assay with COLO 205 and > 100 µM (inactive) in the assay on HOP-62.
Turning to `Cc1ccc(-c2cc(-c3ccco3)nc(N)n2)o1`, the GI50 with ACHN was > 100 µM (inactive); in the assay on SR, > 100 µM (inactive); in the assay with SF-295, > 100 µM (inactive); in the assay with RXF 393, > 100 µM (inactive); with HCT-15 it was over 100 µM; with K562, > 100 µM (inactive). Besides, the GI50 in the assay on OVCAR-4, in the assay on NCI-H23, in the assay on OVCAR-3, with A549, with HCT-116 and in the assay on OVCAR-8 was > 100 µM (inactive) in each case. Further, the GI50 in the assay with NCI-H460, in the assay with UACC-62, in the assay with COLO 205 and in the assay with HOP-62 was > 100 µM (inactive) throughout.
